A short description of series [1]: HepAD38 cells cytotoxicity assay (CellTiter-Glo Luminescent Cell Viability Assay). Type of series: cell-based. The settings on record: human, 7 days total treatment, read-out: Cell tox (EC50, ηM). The method, then: (§1) Example 36 HepAD38 Cells—HBsAg ELISA and Cytotoxicity Assays
(§2) HepAD38 cells are maintained in collagen-coated flasks in cell culture medium (DMEM/F12 containing 10% fetal bovine serum (FBS), GlutaMax-1, penicillin/streptomycin, non-essential amino acids, Na pyruvate, 250 μg/mL geneticin, and 1 μg/mL doxycycline). Compound solutions are prepared in DMSO and compound are serially diluted for final concentrations of 4000, 1000, 250, 62.5, 15.6, 3.91, 0.977, 0.244, 0.061, and 0.015 ηM. The cells are then trypsinized and the cells are plate at 10,000 cells per well. Incubate plates are incubated at 37° C., 5% CO2 for 4 days. Media is replaced with new media with compound treatment. The plates are then incubated at 37° C., 5% CO2 for an additional 3 days for a total treatment time of 7 days. For antiviral response, HBsAg was measured using the HBsAg ELISA kit (International Immuno-diagnostics) with instructions provided. 100 uL of cell media samples was used for ELISA. The absorbance was read on the Spectramax® 384 plate reader (Molecular Devices) at 450 nm. For cell toxicity, the cells were used for CellTiter-Glo® Luminescent Cell Viability Assay reagent (Promega). The luminescence was read on Envision Multilabel Reader (Perkin Elmer). The data was analyzed compared to the DMSO control. % inhibition=(1−(unknown/high control))*100
(§3) The average % inhibition values from duplicate assay plates are then plotted in GraphPad Prism to determine one IC value: Four-parameter logistic curve with equation Y=Bottom+(Top-Bottom)/(1+10^((Log IC50−X)*HillSlope)) pIC50=[…]

For series [2], the system named is HBs antigens (HBsAg). Briefly: HepAD38 cells HBsAg ELISA. Type of series: cell-based, Hepatitis B virus. Conditions: read-out: HepAD38, HBsAg (EC50), 7 days total treatment, HBsAg ELISA of cell media. The method, then: as §1, §2, §3

Structures are written as SMILES.

Take `COCCCOc1cc2c(nc1Cl)-c1cc(=O)c(C(=O)O)cn1[C@H]1[C@@H]2CCC1(C)C` (single isomer, unassigned) [Example 1]: the EC50 at 7 days in series [1] is more than 4 µM. Further, the EC50 in series [2] is less than 0.001 µM.

Consider `COCCCOc1cc2c(nc1C1CC1)-c1c(O)c(=O)c(C(=O)O)cn1[C@H](C(C)(C)C)C2` [Example 25, (S)-6-(tert-Butyl)-2-cyclopropyl-11-hydroxy-3-(3-methoxypropoxy)-10-oxo-5,10-dihydro-6H-pyrido[1,2-h][1,7]naphthyridine-9-carboxylic acid], for which the EC50 at 7 days in series [1] was more than 4 µM. The EC50 in series [2] was less than 0.001 µM.

`COCCCOc1cc2c(nc1C1CC1)-c1cc(=O)c(C(=O)O)cn1[C@H]1[C@@H]2CCC1(C)C` [Example 3, (4bR,7aS)-2-Cyclopropyl-3-(3-methoxypropoxy)-7,7-dimethyl-11-oxo-4b,5,6,7,7a,11-hexahydrocyclopenta[f]pyrido[1,2-h][1,7]naphthyridine-10-carboxylic acid]: the EC50 at 7 days in series [1] was more than 4 µM. In series [2], the EC50 was less than 0.001 µM.

Regarding `Cc1cc2c(nc1C)CC(C(C)C)n1cc(C(=O)O)c(=O)cc1-2` (stereo not drawn) [Example 33, 6-Isopropyl-2,3-dimethyl-10-oxo-5,10-dihydro-6H-pyrido[2,1-f][1,6]naphthyridine-9-carboxylic acid], the EC50 at 7 days in series [1] is more than 4 µM. Besides, the EC50 in series [2] is more than 0.1 µM.

For `COc1cc2c(nc1OC)-c1cc(=O)c(C(=O)O)cn1C1(CCC1)C2` [Example 32, 2′,3′-Dimethoxy-10′-oxo-5′,10′-dihydrospiro[cyclobutane-1,6′-pyrido[1,2-h][1,7]naphthyridine]-9′-carboxylic acid], the EC50 at 7 days in series [1] was more than 4 µM. In series [2], the EC50 lay in the range of 0.01 to 0.1 µM.

On to `COCCCOc1cc2c(nc1Cl)-c1cc(=O)c(C(=O)O)cn1C(C(C)(C)CO)C2` (stereo not drawn) [Example 10, 2-Chloro-6-(1-hydroxy-2-methylpropan-2-yl)-3-(3-methoxypropoxy)-10-oxo-6,10-dihydro-5H-pyrido[1,2-h][1,7]naphthyridine-9-carboxylic acid], for which the EC50 at 7 days in series [1] was more than 4 µM. Moreover, in series [2], the EC50 is 0.001 to 0.01 µM.

Consider `COCCCOc1cc2c(nc1C(C)C)-c1cc(=O)c(C(=O)O)cn1[C@H](C(C)(C)C)C2` [Example 22, (S)-6-(tert-Butyl)-2-isopropyl-3-(3-methoxypropoxy)-10-oxo-6,10-dihydro-5H-pyrido[1,2-h][1,7]naphthyridine-9-carboxylic acid], for which, in series [1], the EC50 at 7 days was more than 4 µM. Also, the EC50 in series [2] was less than 0.001 µM.

With `C=C(C)c1nc2c(cc1OCCCOC)C[C@@H](C(C)(C)C)n1cc(C(=O)O)c(=O)cc1-2` [Example 21, (S)-6-(tert-Butyl)-3-(3-methoxypropoxy)-10-oxo-2-(prop-1-en-2-yl)-6,10-dihydro-5H-pyrido[1,2-h][1,7]naphthyridine-9-carboxylic acid], in series [1], the EC50 at 7 days is more than 4 µM. In series [2], the EC50 was less than 0.001 µM.

On to `COCCCOc1cc2c(nc1C)-c1cc(=O)c(C(=O)O)cn1[C@H](C(C)(C)C)C2` [Example 13, (S)-6-(tert-Butyl)-3-(3-methoxypropoxy)-2-methyl-10-oxo-6,10-dihydro-5H-pyrido[1,2-h][1,7]naphthyridine-9-carboxylic acid], for which, in series [1], the EC50 at 7 days is more than 4 µM. For the same compound, the EC50 in series [2] is less than 0.001 µM.

Take `Cc1nc2c(cc1OCC1CC1)C[C@@H](C(C)(C)C)n1cc(C(=O)O)c(=O)cc1-2` [Example 12, (S)-6-(tert-Butyl)-3-(cyclopropylmethoxy)-2-methyl-10-oxo-6,10-dihydro-5H-pyrido[1,2-h][1,7]naphthyridine-9-carboxylic acid]: the EC50 at 7 days in series [1] is more than 4 µM. The EC50 in series [2] is less than 0.001 µM.

Turning to `COCCCOc1cc2c(nc1O)-c1cc(=O)c(C(=O)O)cn1[C@H]1[C@@H]2CCC1(C)C` [Example 8, (4bR,7aS)-2-Hydroxy-3-(3-methoxypropoxy)-7,7-dimethyl-11-oxo-4b,5,6,7,7a,11-hexahydrocyclopenta[f]pyrido[1,2-h][1,7]naphthyridine-10-carboxylic acid], the EC50 at 7 days in series [1] was more than 4 µM. Besides, the 50% effective concentration (EC50) in series [2] is more than 0.1 µM.

Consider `O=C(O)c1cn2c(cc1=O)-c1nc(Cl)c(OCC3CC3)cc1CC21CCC1` [Example 31, 2′-Chloro-3′-(cyclopropylmethoxy)-10′-oxo-5′,10′-dihydrospiro[cyclobutane-1,6′-pyrido[1,2-h][1,7]naphthyridine]-9′-carboxylic acid], for which the EC50 at 7 days in series [1] was more than 4 µM. In series [2], the EC50 fell in the range of 0.001 to 0.01 µM.

Take `COCCCOc1cc2c(nc1Cl)-c1cc(=O)c(C(=O)O)cn1[C@H](C(C)(C)C)C2` [Example 11, (S)-6-(tert-Butyl)-2-chloro-3-(3-methoxypropoxy)-10-oxo-6,10-dihydro-5H-pyrido[1,2-h][1,7]naphthyridine-9-carboxylic acid]: in series [1], the EC50 at 7 days is more than 4 µM. The EC50 in series [2] was less than 0.001 µM.

Regarding `COCCCOc1cc2c(nc1C1CC1)-c1cc(=O)c(C(=O)O)cn1[C@@H]1C(C)(C)CCC21O` (single isomer, unassigned) [Example 5], the EC50 at 7 days in series [1] was more than 4 µM. Besides, the EC50 in series [2] is 0.001 to 0.01 µM.

`COCCCOc1cc2c(nc1C1CC1)-c1cc(=O)c(C(=O)O)cn1C1C2CCC1(C)C` (racemic) [Example 4, 2-Cyclopropyl-3-(3-methoxypropoxy)-7,7-dimethyl-11-oxo-4b,5,6,7,7a,11-hexahydrocyclopenta[f]pyrido[1,2-h][1,7]naphthyridine-10-carboxylic acid (racemic cis)]: in series [1], the EC50 at 7 days was more than 4 µM. The EC50 in series [2] is less than 0.001 µM.

On to `COc1nc2c(cc1OCC1CC1)C[C@@H](C(C)(C)C)n1cc(C(=O)O)c(=O)cc1-2` [Example 17, (S)-6-(tert-Butyl)-3-(cyclopropylmethoxy)-2-methoxy-10-oxo-6,10-dihydro-5H-pyrido[1,2-h][1,7]naphthyridine-9-carboxylic acid], for which, in series [1], the EC50 at 7 days is more than 4 µM. In addition, the EC50 in series [2] is less than 0.001 µM.

On to `COc1nc2c(cc1OCC1CC1)C[C@H](C(C)(C)C)n1cc(C(=O)O)c(=O)cc1-2` [Example 16, (R)-6-(tert-Butyl)-3-(cyclopropylmethoxy)-2-methoxy-10-oxo-6,10-dihydro-5H-pyrido[1,2-h][1,7]naphthyridine-9-carboxylic acid], for which the EC50 at 7 days in series [1] is more than 4 µM. Moreover, the EC50 in series [2] is more than 0.1 µM.

Take `COCCCOc1cc2c(nc1OC)-c1cc(=O)c(C(=O)O)cn1[C@H](C(C)(C)C)C2` [Example 19, (S)-6-(tert-Butyl)-2-methoxy-3-(3-methoxypropoxy)-10-oxo-6,10-dihydro-5H-pyrido[1,2-h][1,7]naphthyridine-9-carboxylic acid]: the EC50 at 7 days in series [1] is more than 4 µM. For the same compound, the EC50 in series [2] was less than 0.001 µM.

As for `COCCCOc1cc2c(nc1C1CC1)-c1cc(=O)c(C(=O)O)cn1[C@H](C(C)(C)C)C2` [Example 15, (S)-6-(tert-Butyl)-2-cyclopropyl-3-(3-methoxypropoxy)-10-oxo-6,10-dihydro-5H-pyrido[1,2-h][1,7]naphthyridine-9-carboxylic acid], the EC50 at 7 days in series [1] was more than 4 µM. The EC50 in series [2] is less than 0.001 µM.

On to `COCCCOc1cc2c(nc1Cl)-c1cc(=O)c(C(=O)O)cn1C1C2CCC1(C)C` (racemic) [Example 34, 2-Chloro-3-(3-methoxypropoxy)-7,7-dimethyl-11-oxo-4b,5,6,7,7a,11-hexahydrocyclopenta[f]pyrido[1,2-h][1,7]naphthyridine-10-carboxylic acid], for which the 50% effective concentration (EC50) at 7 days in series [1] was more than 4 µM. Also, the EC50 in series [2] was less than 0.001 µM.

As to `CC(C)C1(C)Cc2cc(OCC3CC3)c(Cl)nc2-c2cc(=O)c(C(=O)O)cn21` (single isomer, unassigned; isomer-1) [Example 26, (2-Chloro-3-(cyclopropylmethoxy)-6-isopropyl-6-methyl-10-oxo-5,10-dihydro-6H-pyrido[1,2-h][1,7]naphthyridine-9-carboxylic acid-Isomer-1], the EC50 at 7 days in series [1] is more than 4 µM. Further, the EC50 in series [2] is 0.001 to 0.01 µM.

In the case of `COCCCOc1cc2c(nc1Cl)-c1cc(=O)c(C(=O)O)cn1[C@@H]1[C@H]2CCC1(C)C` (single isomer, unassigned) [Example 2], the EC50 at 7 days in series [1] is more than 4 µM. Also, the EC50 in series [2] was in the range of 0.01 to 0.1 µM.

Consider `CC(C)(C)[C@@H]1Cc2cc(OCC3CC3)c(C3CC3)nc2-c2cc(=O)c(C(=O)O)cn21` [Example 14, (S)-6-(tert-Butyl)-2-cyclopropyl-3-(cyclopropylmethoxy)-10-oxo-6,10-dihydro-5H-pyrido[1,2-h][1,7]naphthyridine-9-carboxylic acid], for which, in series [1], the EC50 at 7 days was more than 4 µM. Moreover, the EC50 in series [2] was less than 0.001 µM.

In the case of `CC(C)(C)C1Cc2cc(OCC3CC3)c(Cl)nc2-c2cc(=O)c(C(=O)O)cn21` (single isomer, unassigned; isomer 2) [Example 30-B, 6-(tert-Butyl)-2-chloro-3-(cyclopropylmethoxy)-10-oxo-6,10-dihydro-5H-pyrido[1,2-h][1,7]naphthyridine-9-carboxylic acid (isomer 2)], in series [1], the EC50 at 7 days was more than 4 µM. Also, in series [2], the EC50 is more than 0.1 µM.

For the origin of these results see US12221444B2, “5,6,7,7a-tetrahydrocyclopenta[f]pyrido[1,2-h][1,7]naphthyridin-11(4bH)-one compounds and methods of use” (GLAXOSMITHKLINE INTELLECTUAL, priority 2017, dated 2025).
